Among the test systems are HCT-116 colon; SR leukemia; HS 578T breast; A549 NSCLC; SF-268 CNS; K-562 leukemia; CAKI-1 renal; SNB-75 CNS; RXF 393 renal.
What all share (assay): NCI-60 cell line screen, 48 h

Values joined by “and” are separate entries in the source; they are usually repeats but may differ in a detail not shown here. Equal values may be shown once.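 Growth conditions: 96-well plates. Treatment: test compound, 48 hours, 5 concentrations. Analysis: linear interpolation between bracketing concentrations; unreached endpoints set to highest concentration. At the GI50, growth is halved. Definition used: TGI = concentration required for complete inhibition of growth.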

Consider `C=C1C(OCCO)OC2O[C@]3(C)CCC4[C@H](C)CCC1C24OO3` (stereo partly specified), for which the GI50 is 8.69 µM in the assay on HCT-116 colon; 2.36 µM in the assay with SR leukemia; 19.9 µM in the assay on HS 578T breast; 28.4 µM in the assay on A549 NSCLC; 43.4 µM in the assay on SF-268 CNS; 4.16 µM in the assay with K-562 leukemia. For the same compound, the GI50 in the assay on CAKI-1 renal is 19 µM. Moreover, the TGI in the assay on HCT-116 colon was over 100 µM; in the assay on SR leukemia, 26.2 µM; with HS 578T breast, over 100 µM; with A549 NSCLC, over 100 µM; in the assay on SF-268 CNS, over 100 µM; in the assay on K-562 leukemia, over 100 µM. In addition, the TGI with CAKI-1 renal worked out at 40.5 µM.
As for `C#Cc1ccccc1N1C(=O)C=CC1=O`, the TGI in the assay on HCT-116 colon, with SNB-75 CNS, in the assay on SR leukemia, in the assay with A549 NSCLC, in the assay on SF-268 CNS and with K-562 leukemia was over 100 µM in each case. Besides, the TGI with CAKI-1 renal was over 100 µM.
With `CCOc1cc[n+](C(=C=[N-])C#N)cc1`, the TGI in the assay on RXF 393 renal, in the assay with HCT-116 colon, in the assay on SNB-75 CNS, with SR leukemia, in the assay on A549 NSCLC and with SF-268 CNS was over 100 µM in each case. Moreover, the TGI with K-562 leukemia and in the assay with CAKI-1 renal was over 100 µM each time.
In the case of `CC(=O)N1CCN(C=S)CC1`, the TGI in the assay with RXF 393 renal, in the assay on HCT-116 colon, in the assay with SNB-75 CNS, with SR leukemia, with A549 NSCLC and with SF-268 CNS was over 100 µM each time. For the same compound, the TGI in the assay on K-562 leukemia and in the assay with CAKI-1 renal was over 100 µM each time.
For `C/C(=N\NS(=O)(=O)c1ccccc1)c1ccc[n+]([O-])n1`, the TGI with HCT-116 colon, in the assay on SNB-75 CNS, with SR leukemia, with A549 NSCLC, with SF-268 CNS and in the assay with K-562 leukemia was over 100 µM in each case. In the assay on CAKI-1 renal, this compound yielded a TGI of over 100 µM.
Consider `CCCCCCC(=O)CC(=O)C(=O)Nc1ccccc1C`, for which the TGI with RXF 393 renal, with HCT-116 colon, with SNB-75 CNS, with SR leukemia, with A549 NSCLC and in the assay on SF-268 CNS was over 100 µM in each case. The TGI in the assay with K-562 leukemia and in the assay with CAKI-1 renal was over 100 µM each time.
In the case of `NC(C(=O)O)c1ccc(C(=O)O)cc1` (stereo unspecified), the TGI in the assay with RXF 393 renal, with SNB-75 CNS, in the assay with SR leukemia, in the assay on A549 NSCLC, in the assay on SF-268 CNS and with K-562 leukemia was over 100 µM each time. The compound also gave a TGI with CAKI-1 renal of over 100 µM.
Turning to `Cc1ccc(SSCCCCS(=O)O)cc1`, the TGI is 29.1 µM in the assay on RXF 393 renal; over 100 µM in the assay on HCT-116 colon; over 100 µM in the assay with SNB-75 CNS; 70.6 µM in the assay on A549 NSCLC; 46.9 µM in the assay on SF-268 CNS; over 100 µM with K-562 leukemia. This compound also had a TGI in the assay on CAKI-1 renal of 40.9 µM.
As for `N#CCCn1c(CCC(=O)Nc2ccc(Cl)cc2Cl)n[nH]c1=S`, the TGI in the assay with RXF 393 renal, in the assay on HCT-116 colon, with SNB-75 CNS, with SR leukemia, in the assay with A549 NSCLC and in the assay on SF-268 CNS was over 100 µM in each case. For the same compound, the TGI with K-562 leukemia and in the assay on CAKI-1 renal was over 100 µM in each case.
Regarding `COc1ccc([Se]c2ccc(OC)cc2)cc1`, the TGI was over 100 µM in the assay on RXF 393 renal; over 100 µM with HCT-116 colon; 96.8 µM in the assay with SNB-75 CNS; over 100 µM in the assay on A549 NSCLC; over 100 µM in the assay on SF-268 CNS; over 100 µM in the assay with K-562 leukemia. In the assay with CAKI-1 renal, this compound showed a TGI of over 100 µM.
`Cc1ccccc1NC(=O)CC(=O)n1nc(-c2ccccc2)c(N=Nc2ccc([N+](=O)[O-])cc2)c1-c1ccccc1`: the TGI in the assay with RXF 393 renal is 82 µM; with HCT-116 colon, 31.5 µM; in the assay on SNB-75 CNS it was over 100 µM; in the assay with SR leukemia, over 100 µM; in the assay on A549 NSCLC, 41.8 µM; in the assay on SF-268 CNS it was over 100 µM. The TGI with K-562 leukemia is 48.9 µM; in the assay with CAKI-1 renal it was 40.4 µM.
In the case of `NNC(=O)N/N=C1/C(=O)N(c2ccc(Cl)c(Cl)c2)C(=O)C(=O)C1c1nc2ccccc2o1` (stereo unspecified), the TGI with HCT-116 colon, with SNB-75 CNS, with A549 NSCLC, with SF-268 CNS, in the assay with K-562 leukemia and in the assay with CAKI-1 renal was over 100 µM in each case.
For `O=S1Cc2ccccc2CSS1` (stereo unspecified), the TGI stood at 13.8 µM with RXF 393 renal; 28.3 µM in the assay on HCT-116 colon; 43.4 µM with SNB-75 CNS; 51.2 µM in the assay with SR leukemia; 46.7 µM in the assay with A549 NSCLC; 74.2 µM with SF-268 CNS. The TGI with K-562 leukemia is 38.1 µM; with CAKI-1 renal, 35.8 µM.
Take `CN(C)c1ccc(/C=c2\sc3nnc(Cc4ccccc4)n3c2=O)cc1`: the GI50 is over 10 µM in the assay with RXF 393 renal; over 10 µM in the assay on HCT-116 colon; over 100 µM with SNB-75 CNS; over 100 µM with SR leukemia; over 10 µM with A549 NSCLC; over 10 µM in the assay with SF-268 CNS. For the same compound, the GI50 in the assay on K-562 leukemia and in the assay on CAKI-1 renal was over 100 µM throughout. Also, the TGI was > 10 µM and 97.3 µM in the assay with RXF 393 renal; > 10 µM and 35.4 µM in the assay with HCT-116 colon; over 100 µM with SNB-75 CNS; over 100 µM with SR leukemia; over 100 µM with A549 NSCLC; > 10 µM and 57.8 µM in the assay on SF-268 CNS. Also, the TGI in the assay with K-562 leukemia and in the assay with CAKI-1 renal was over 100 µM in each case.
Turning to `COC(=O)C(C(=O)C(=O)Nc1ccc(N)cc1[N+](=O)[O-])c1nc2ccc(Cl)cc2[nH]c1=O` (stereo unspecified), the TGI in the assay with RXF 393 renal, in the assay with HCT-116 colon, in the assay on SNB-75 CNS, in the assay on A549 NSCLC, with SF-268 CNS and in the assay on K-562 leukemia was over 100 µM in each case. This compound had a TGI in the assay with CAKI-1 renal of over 100 µM.

The values are drawn from PubChem BioAssay (NCI).
